Measurements reported in US10226041B2, “Compositions and methods for improving the quality of processed sperm” (Inguran, LLC, priority 2011, dated 2019).
Where “and” joins values, the source holds several entries; their conditions need not be identical. Identical values can stand only once.

Test system: sex-sorted sperm cells
Experiment: CASA post-thaw motility of sex sorted bull sperm treated with OSR
Type: cell-based, bovine
Design: key to BCF: beat cross frequency in Hz; key to ALH: lateral head displacement in μm; key to STR / LIN: percent; key to Motile: percent motile sperm; key to VAP / VSL / VCL: velocity in μm/s
Details: for ALH / BCF / LIN / Motile / Prog / STR / VAP / VCL / VSL: 3 hr post-thaw
From the text: 5. Sperm Motility Evaluations by CASA. A comparison of viewing chambers and slides can be done in a variety of IVOS instruments, which for example only can be a Hamilton-Thorne IVOS (Hamilton-Thorne, Beverly, Mass.). Instrument settings: image capture; frames per second=60; number of frames=30; cell detection; minimum contrast=50; minimum cell size=5; defaults, cell size=5; cell intensity=50; progressive cells, path velocity=50 um/s; straightness ≥70%; slow cells (um/s); average path velocity (VAP, <30 um/s), straight-line velocity (VSL, <15 um/s). The CASA motility variables measured can be a percentage of total motile sperm (motile), percentage of progressively motile sperm (progressive), VAO, VSL, curvilinear velocity (VCL, um/s), average lateral head displacement (ALK, um) and the number of times the sperm head crosses the mean path/s (BCF, Hz), straight-line sperm motility (STR, %), and linear sperm motility (LIN, %). See for instance, Lenz, R W, et al., J Anim Sci (2011) 89:383-388, incorporated by reference herein in its entirety.
One set of semen from each bull was used as a control while to the remaining sets of semen samples were added vitamin B12, as the antioxidant, at respective concentrations of 0.5 mg/ml and 0.25 mg/ml. For each sample, the same concentration of vitamin B12 was added (i) during the staining process, and (ii) in the catch fluid of the collection vessel. […] Sperm samples were sorted in “High Purity” mode, and the collected sex-sorted sperm were extended with a cryoextender, which in some cases again contained the same concentration of vitamin B12 and the samples were frozen. Three hours after thawing (which is a standard time frame to conduct quality control assessments on sorted frozen thawed sperm samples) the thawed samples were put through CASA, a machine that provides various data on sperm including motility and progressive motility information.
In the tables below: VAP (average path velocity (μm/s)); VSL (straight-line velocity (μm/s)); VCL (curvilinear velocity (μm/s)); ALH (average lateral head displacement (μm)); BCF (the number of times the sperm head crosses the mean path/s in Hz); STR (percent straight-line sperm motility); LIN (percent linear sperm motility); PIA (percent intact acrosomes); motile (percent motile sperm); and progressive (percent progressively motile sperm).
There is no correlation with regard to randomly assigned names such as “Bull A.” Bull A from Example 5 is not the same bull as Bull A from Example 7.
In both cases the concentration of the vitamin B12 was 1 mg/ml. For all other bulls in the table below unless otherwise indicated, the concentration of vitamin B12 added was also 1 mg/ml.
In an additional experiment, motility and progressive motility were checked 3.75 hours after thawing a sex sorted semen sample treated with the antioxidant. The OSR was not added to the control sample. The semen sample was derived from a single bull. 0.25 mg/ml concentration of vitamin B12 was added to the test sample during the staining step, the collecting step (in the catch fluid of the collecting vessel) and in the cryoprotectant extender prior to freezing the sample.
[…] The OSR was not added to the control samples. The semen samples were derived from two Holstein bulls.

[1] = 0.5 mg/ml, 2 step F, 3 hrs post-thaw, Bulls 1-5
[2] = .15 mg/ml, 3 step, Holstein, 1M/straw
[3] = .15 mg/ml, 3 step, Holstein, 2.1M/straw
[4] = .15 mg/ml, 3 step, Jersey, 2.1M/straw
[5] = .25 mg/ml, 3 step, Holstein, 1M/straw
[6] = .25 mg/ml, 3 step, Holstein, 2.1M/straw
[7] = .25 mg/ml, 3 step, Holstein, 5M/straw
[8] = .25 mg/ml, 3 step, Jersey, 2.1M/straw
[9] = .35 mg/ml, 3 step, Holstein, 1M/straw
[10] = .35 mg/ml, 3 step, Holstein, 2.1M/straw
[11] = .35 mg/ml, 3 step, Holstein, 5M/straw
[12] = .5 mg/ml, 3 step, Holstein, 5M/straw

Substance: vitamin B12
- % Motility (0 hr, 1 step-stain (+−−), Bull C (Jersey), Trial 1): 80%
- % Motility (0 hr, 1 step-stain (+−−), Bull C (Jersey), Trial 2): 61%
- % Motility (0 hr, 2 step-stain (++−), Bull C (Jersey), Trial 1): 74%
- % Motility (0 hr, 2 step-stain (++−), Bull C (Jersey), Trial 2): 57%
- % Motility (0 hr, 3 step (+++), Bull C (Jersey), Trial 1): 70%
- % Motility (0 hr, 3 step (+++), Bull C (Jersey), Trial 2): 76%
- % Motility (0 hr, vitamin B12 0.5 mg/ml, 3 step, Bull A (Jersey)): 60%
- % Motility (0 hr, vitamin B12 0.5 mg/ml, 3 step, Bull B (Holstein)): 79%
- Motile (percent motile sperm) (0.5 mg/ml, 2 step F (catch fluid + cryoextender), 3 hrs post-thaw, Bulls 1-5): 70.5% and 74.5% and 81.5% and 51% and 63.5%
- ALH (average lateral head displacement) [1]: 4 μm and 5 μm
- BCF (times sperm head crosses the mean path/s) [1]: 21.5 Hz and 22.5 Hz and 26 Hz and 20.5 Hz and 23 Hz
- LIN (percent linear sperm motility) [1]: 61% and 52.5% and 49% and 47%
- STR (percent straight-line sperm motility) [1]: 85.5% and 84.5% and 83.5% and 84% and 86.5%
- VAP (average path velocity) [1]: 77 μm/s and 56 μm/s and 60 μm/s and 50 μm/s
- VCL (curvilinear velocity) [1]: 108 μm/s and 98 μm/s and 109 μm/s and 101 μm/s and 94 μm/s
- VSL (straight-line velocity) [1]: 66 μm/s and 51 μm/s and 53 μm/s and 47 μm/s and 45 μm/s
- % Motility (3 hr, 1 step-stain (+−−), Bull C (Jersey), Trial 1): 47%
- % Motility (3 hr, 2 step-stain (++−), Bull C (Jersey), Trial 1): 57%
- % Motility (3 hr, 2 step-stain (++−), Bull C (Jersey), Trial 2): 25%
- % Motility (3 hr, 3 step (+++), Bull C (Jersey), Trial 1): 75%
- % Motility (3 hr, 3 step (+++), Bull C (Jersey), Trial 2): 42%
- % Motility (3 hr, vitamin B12 0.5 mg/ml, 3 step, Bull A (Jersey)): 42%
- % Motility (3 hr, vitamin B12 0.5 mg/ml, 3 step, Bull B (Holstein)): 48%
- ALH [2]: 4
- BCF [2]: 12
- LIN [2]: 53
- Motile [2]: 48
- Prog [2]: 18
- STR [2]: 88
- VAP [2]: 48
- VCL [2]: 81
- VSL [2]: 42
- ALH [3]: 5
- BCF [3]: 18
- LIN [3]: 48
- Motile [3]: 49
- Prog [3]: 10
- STR [3]: 86
- VAP [3]: 44
- VCL [3]: 79
- VSL [3]: 38
- ALH [4]: 6
- BCF [4]: 15
- LIN [4]: 47
- Motile [4]: 25
- Prog [4]: 4
- STR [4]: 84
- VAP [4]: 42
- VCL [4]: 75
- VSL [4]: 35
- ALH [5]: 4
- BCF [5]: 22
- LIN [5]: 53
- Motile [5]: 48
- Prog [5]: 29
- STR [5]: 87
- VAP [5]: 55
- VCL [5]: 92
- VSL [5]: 47
- ALH [6]: 5
- BCF [6]: 20
- LIN [6]: 50
- Motile [6]: 48
- Prog [6]: 18
- STR [6]: 87
- VAP [6]: 46
- VCL [6]: 81
- VSL [6]: 40
- ALH [7]: 7
- BCF [7]: 14
- LIN [7]: 42
- Motile [7]: 24
- Prog [7]: 2
- STR [7]: 70
- VAP [7]: 41
- VCL [7]: 69
- VSL [7]: 28
- ALH [8]: 5
- BCF [8]: 20
- LIN [8]: 50
- Motile [8]: 48
- Prog [8]: 20
- STR [8]: 85
- VAP [8]: 51
- VCL [8]: 87
- VSL [8]: 43
- ALH [9]: 4
- BCF [9]: 23
- LIN [9]: 55
- Motile [9]: 65
- Prog [9]: 46
- STR [9]: 88
- VAP [9]: 58
- VCL [9]: 94
- VSL [9]: 51
- ALH [10]: 5
- BCF [10]: 23
- LIN [10]: 53
- Motile [10]: 46
- Prog [10]: 30
- STR [10]: 88
- VAP [10]: 58
- VCL [10]: 99
- VSL [10]: 51
- ALH [11]: 7
- BCF [11]: 14
- LIN [11]: 43
- Motile [11]: 28
- Prog [11]: 3
- STR [11]: 69
- VAP [11]: 41
- VCL [11]: 68
- VSL [11]: 32
- ALH [12]: 6
- BCF [12]: 15
- LIN [12]: 43
- Motile [12]: 14
- Prog [12]: 3
- STR [12]: 70
- VAP [12]: 43
- VCL [12]: 71
- VSL [12]: 30
